According to PubChem BioAssay AID2060511 (Molecular Pharmacology Branch, DTP, NCI, 2025):

Test system: 422866-222-R5-J1-PDC spheroids with HUVEC/MSC, viability
Assay: Anticancer human tumor 422866-222-R5-J1-PDC patient-derived pancreatic adenocarcinoma cell line growth inhibition [GQUAD]
Details: for IC50: curve of first compound; for viability, T/C: stronger effect = lower value
Procedure, shortened: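 Viability of tumor cells grown as complex spheroids with endothelial and stromal cells, exposed to drug combinations. Top concentration at or near clinical Cmax (else 10 microM), diluted in half-log increments.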

[1] = second compound 0.0316 µM, first compound 0.0316 µM
[2] = second compound 0.0316 µM, first compound 0.1 µM
[3] = second compound 0.0316 µM, first compound 0.316 µM
[4] = second compound 0.0316 µM, first compound 1 µM
[5] = second compound 0.0316 µM, first compound 3.16 µM
[6] = second compound 0.0316 µM, first compound 10 µM
[7] = second compound 0.1 µM, first compound 0.0316 µM
[8] = second compound 0.1 µM, first compound 0.1 µM
[9] = second compound 0.1 µM, first compound 0.316 µM
[10] = second compound 0.1 µM, first compound 1 µM
[11] = second compound 0.1 µM, first compound 3.16 µM
[12] = second compound 0.1 µM, first compound 10 µM
[13] = second compound 0.316 µM, first compound 0.0316 µM
[14] = second compound 0.316 µM, first compound 0.1 µM
[15] = second compound 0.316 µM, first compound 0.316 µM
[16] = second compound 0.316 µM, first compound 1 µM
[17] = second compound 0.316 µM, first compound 3.16 µM
[18] = second compound 0.316 µM, first compound 10 µM
[19] = second compound 1 µM, first compound 0.0316 µM
[20] = second compound 1 µM, first compound 0.1 µM
[21] = second compound 1 µM, first compound 0.316 µM
[22] = second compound 1 µM, first compound 1 µM
[23] = second compound 1 µM, first compound 3.16 µM
[24] = second compound 1 µM, first compound 10 µM
[25] = second compound 3.16 µM, first compound 0.0316 µM
[26] = second compound 3.16 µM, first compound 0.1 µM
[27] = second compound 3.16 µM, first compound 0.316 µM
[28] = second compound 3.16 µM, first compound 1 µM
[29] = second compound 3.16 µM, first compound 3.16 µM
[30] = second compound 3.16 µM, first compound 10 µM
[31] = second compound 10 µM, first compound 0.0316 µM
[32] = second compound 10 µM, first compound 0.1 µM
[33] = second compound 10 µM, first compound 0.316 µM
[34] = second compound 10 µM, first compound 1 µM
[35] = second compound 10 µM, first compound 3.16 µM
[36] = second compound 10 µM, first compound 10 µM
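Further: spheroids exposed to compounds for seven days before reading.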
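Wherever viability, T/C is given: percent viability relative to DMSO vehicle control taken as 100%.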

Q: Which IC50 (second compound 0.0316 µM) does the source give for `C=CCn1c(=O)c2cnc(Nc3ccc(N4CCN(C)CC4)cc3)nc2n1-c1cccc(C(C)(C)O)n1` + Cc1[nH]c2ccc(F)cc2c1-c1nc2c3cccnc3c3ncccc3c2[nH]1 here?
A: > 10 µM

Q: And the IC50 (second compound 0.1 µM)?
A: > 10 µM

Q: And the IC50 (second compound 0.316 µM)?
A: > 10 µM

Q: What about the IC50 (second compound 1 µM) of the same compound?
A: > 10 µM

Q: What about the IC50 (second compound 3.16 µM) of the same compound?
A: > 10 µM

Q: What about the IC50 (second compound 10 µM) of the same compound?
A: > 10 µM

Q: And the viability, T/C [1]?
A: 103%

Q: What about the viability, T/C [2] of the same compound?
A: 110%

Q: What about the viability, T/C [3] of the same compound?
A: 167%

Q: And the viability, T/C [4]?
A: 125%

Q: And the viability, T/C [5]?
A: 157%

Q: What about the viability, T/C [6] of the same compound?
A: 91.9%

Q: And the viability, T/C [7]?
A: 112%

Q: And the viability, T/C [8]?
A: 101%

Q: And the viability, T/C [9]?
A: 127%

Q: What about the viability, T/C [10] of the same compound?
A: 146%

Q: And the viability, T/C [11]?
A: 183%

Q: And the viability, T/C [12]?
A: 107%

Q: And the viability, T/C [13]?
A: 101%

Q: What about the viability, T/C [14] of the same compound?
A: 127%

Q: And the viability, T/C [15]?
A: 126%

Q: And the viability, T/C [16]?
A: 130%

Q: And the viability, T/C [17]?
A: 202%

Q: What about the viability, T/C [18] of the same compound?
A: 112%

Q: And the viability, T/C [19]?
A: 89.3%

Q: And the viability, T/C [20]?
A: 122%

Q: What about the viability, T/C [21] of the same compound?
A: 120%

Q: What about the viability, T/C [22] of the same compound?
A: 121%

Q: What about the viability, T/C [23] of the same compound?
A: 194%

Q: And the viability, T/C [24]?
A: 122%

Q: What about the viability, T/C [25] of the same compound?
A: 75.5%

Q: And the viability, T/C [26]?
A: 74.5%

Q: What about the viability, T/C [27] of the same compound?
A: 85.2%

Q: And the viability, T/C [28]?
A: 117%

Q: What about the viability, T/C [29] of the same compound?
A: 122%

Q: What about the viability, T/C [30] of the same compound?
A: 76.9%

Q: And the viability, T/C [31]?
A: 70.5%

Q: What about the viability, T/C [32] of the same compound?
A: 51.5%

Q: And the viability, T/C [33]?
A: 85.7%

Q: What about the viability, T/C [34] of the same compound?
A: 68.5%

Q: What about the viability, T/C [35] of the same compound?
A: 105%

Q: And the viability, T/C [36]?
A: 79.3%

Q: Which IC50 (second compound 0.0316 µM) does the source give for `COc1ncnc(C2CC2)c1-c1ncc2cnn(Cc3ccc(-c4nc(C(F)(F)F)cn4C(C)C)cc3)c2n1` + Cc1[nH]c2ccc(F)cc2c1-c1nc2c3cccnc3c3ncccc3c2[nH]1 here?
A: 8.04 µM

Q: And the IC50 (second compound 0.1 µM)?
A: > 10 µM

Q: What about the IC50 (second compound 0.316 µM) of the same compound?
A: > 10 µM

Q: And the IC50 (second compound 1 µM)?
A: > 10 µM

Q: What about the IC50 (second compound 3.16 µM) of the same compound?
A: > 10 µM

Q: What about the IC50 (second compound 10 µM) of the same compound?
A: > 10 µM

Q: What about the viability, T/C [1] of the same compound?
A: 91.9%

Q: What about the viability, T/C [2] of the same compound?
A: 96.2%

Q: And the viability, T/C [3]?
A: 111%

Q: And the viability, T/C [4]?
A: 87.1%

Q: What about the viability, T/C [5] of the same compound?
A: 64.6%

Q: What about the viability, T/C [6] of the same compound?
A: 46.4%

Q: What about the viability, T/C [7] of the same compound?
A: 106%

Q: What about the viability, T/C [8] of the same compound?
A: 97.4%

Q: And the viability, T/C [9]?
A: 110%

Q: And the viability, T/C [10]?
A: 99.2%

Q: What about the viability, T/C [11] of the same compound?
A: 63.1%

Q: And the viability, T/C [12]?
A: 49.8%

Q: What about the viability, T/C [13] of the same compound?
A: 93%

Q: What about the viability, T/C [14] of the same compound?
A: 116%

Q: What about the viability, T/C [15] of the same compound?
A: 106%

Q: What about the viability, T/C [16] of the same compound?
A: 90.1%

Q: What about the viability, T/C [17] of the same compound?
A: 66.3%

Q: And the viability, T/C [18]?
A: 55.2%

Q: And the viability, T/C [19]?
A: 86%

Q: And the viability, T/C [20]?
A: 110%

Q: What about the viability, T/C [21] of the same compound?
A: 105%

Q: What about the viability, T/C [22] of the same compound?
A: 104%

Q: What about the viability, T/C [23] of the same compound?
A: 72.7%

Q: And the viability, T/C [24]?
A: 54.2%

Q: And the viability, T/C [25]?
A: 67.6%

Q: And the viability, T/C [26]?
A: 70.7%

Q: What about the viability, T/C [27] of the same compound?
A: 71.7%

Q: What about the viability, T/C [28] of the same compound?
A: 77.5%

Q: And the viability, T/C [29]?
A: 63.6%

Q: And the viability, T/C [30]?
A: 60.8%

Q: What about the viability, T/C [31] of the same compound?
A: 58.2%

Q: What about the viability, T/C [32] of the same compound?
A: 53.3%

Q: What about the viability, T/C [33] of the same compound?
A: 73.5%

Q: What about the viability, T/C [34] of the same compound?
A: 47.7%

Q: What about the viability, T/C [35] of the same compound?
A: 60.6%

Q: And the viability, T/C [36]?
A: 50.2%

Q: Which IC50 (second compound 0.0316 µM) does the source give for `Cc1[nH]c2ccccc2c1CCNCc1ccc(/C=C/C(=O)NO)cc1` + Cc1[nH]c2ccc(F)cc2c1-c1nc2c3cccnc3c3ncccc3c2[nH]1 here?
A: > 0.316 µM

Q: What about the IC50 (second compound 0.1 µM) of the same compound?
A: > 0.316 µM

Q: And the IC50 (second compound 0.316 µM)?
A: > 0.316 µM

Q: What about the IC50 (second compound 1 µM) of the same compound?
A: > 0.316 µM

Q: What about the IC50 (second compound 3.16 µM) of the same compound?
A: > 0.316 µM

Q: And the IC50 (second compound 10 µM)?
A: > 0.316 µM

Q: What about the viability, T/C (second compound 0.0316 µM, first compound 0.000999 µM) of the same compound?
A: 113%

Q: What about the viability, T/C (second compound 0.0316 µM, first compound 0.00316 µM) of the same compound?
A: 92.7%

Q: What about the viability, T/C (second compound 0.0316 µM, first compound 0.00999 µM) of the same compound?
A: 110%

Q: What about the viability, T/C [1] of the same compound?
A: 98.6%

Q: And the viability, T/C (second compound 0.0316 µM, first compound 0.0999 µM)?
A: 101%

Q: What about the viability, T/C [3] of the same compound?
A: 102%

Q: What about the viability, T/C (second compound 0.1 µM, first compound 0.000999 µM) of the same compound?
A: 127%

Q: And the viability, T/C (second compound 0.1 µM, first compound 0.00316 µM)?
A: 108%

Q: What about the viability, T/C (second compound 0.1 µM, first compound 0.00999 µM) of the same compound?
A: 102%

Q: What about the viability, T/C [7] of the same compound?
A: 93%

Q: And the viability, T/C (second compound 0.1 µM, first compound 0.0999 µM)?
A: 111%

Q: What about the viability, T/C [9] of the same compound?
A: 94%

Q: What about the viability, T/C (second compound 0.316 µM, first compound 0.000999 µM) of the same compound?
A: 96.6%

Q: And the viability, T/C (second compound 0.316 µM, first compound 0.00316 µM)?
A: 97.2%

Q: And the viability, T/C (second compound 0.316 µM, first compound 0.00999 µM)?
A: 121%

Q: What about the viability, T/C [13] of the same compound?
A: 105%

Q: What about the viability, T/C (second compound 0.316 µM, first compound 0.0999 µM) of the same compound?
A: 115%

Q: And the viability, T/C [15]?
A: 98.9%

Q: And the viability, T/C (second compound 1 µM, first compound 0.000999 µM)?
A: 74.5%

Q: What about the viability, T/C (second compound 1 µM, first compound 0.00316 µM) of the same compound?
A: 93.9%

Q: What about the viability, T/C (second compound 1 µM, first compound 0.00999 µM) of the same compound?
A: 114%

Q: What about the viability, T/C [19] of the same compound?
A: 112%

Q: What about the viability, T/C (second compound 1 µM, first compound 0.0999 µM) of the same compound?
A: 103%

Q: And the viability, T/C [21]?
A: 111%

Q: What about the viability, T/C (second compound 3.16 µM, first compound 0.000999 µM) of the same compound?
A: 64.2%

Q: What about the viability, T/C (second compound 3.16 µM, first compound 0.00316 µM) of the same compound?
A: 73.7%

Q: What about the viability, T/C (second compound 3.16 µM, first compound 0.00999 µM) of the same compound?
A: 68.2%

Q: And the viability, T/C [25]?
A: 73.9%

Q: And the viability, T/C (second compound 3.16 µM, first compound 0.0999 µM)?
A: 75.2%

Q: What about the viability, T/C [27] of the same compound?
A: 78.9%

Q: What about the viability, T/C (second compound 10 µM, first compound 0.000999 µM) of the same compound?
A: 52.1%

Q: What about the viability, T/C (second compound 10 µM, first compound 0.00316 µM) of the same compound?
A: 66.2%

Q: And the viability, T/C (second compound 10 µM, first compound 0.00999 µM)?
A: 64.7%

Q: And the viability, T/C [31]?
A: 65.7%

Q: What about the viability, T/C (second compound 10 µM, first compound 0.0999 µM) of the same compound?
A: 61.1%

Q: And the viability, T/C [33]?
A: 67.6%
